Measurements as given in patent US5356796A, “Repressor protein and operon for regulating expression of polypeptides and its use in the preparation of 2,2-dialkyglycine decarboxylase of Pseudomonas cepacia” (priority 1992, dated 1994).

What was measured:
[1] = tested on: dialkylglycine decarboxylase gene expression in E. coli DH5α/pKBD6; experiment: Time course of dialkylglycine decarboxylase induction in E. coli DH5α/pKBD6; type: cell-based, Escherichia coli; details: DH5α/pKBD6 in minimal medium with ammonium chloride; amino acid added during growth (10 mM in FIG. 7 legend, 8.0 mM in method)
Protocol: FIG. 7 depicts induction of dialkylglycine decarboxylase activity in E. coli DH5a/pKBD6 cultures by various amino acids. One-liter cultures containing minimal salts, glucose, NH4 Cl, and tetracycline (12 μg/ml) were supplemented at the indicated time with amino acid (final concentration, 10 mM). Absorbance of the culture was measured at 600 nm in a 1-cm cell ( -- ). Each activity assay contained 60 absorbance units of resuspended bacteria (.largecircle.--.largecircle.)
Radiochemical Dialkylglycine Decarboxylase Assay--Dialkylglycine decarboxylase activity was measured under zero-order conditions essentially as described (Dinwoodie and Boeker, 1979). Assay reactions contained 500 μL of protein solution (100 mM MOPS^1, (MOPS=3-(N-morphalino)propanesulfonic acid), 25 mM KCl, 0.05 mM PLP, (PLP=pyridoxal 5'-phosphate), pH 7.00 or 30 mM Tris, 40 mM KCl, 0.05 mM PLP pH 7.90) plus 0.045 mL of substrate solution (245 mM 2-methylalanine, 62 mM sodium pyruvate, containing 0.25 μCi [1-^14 C]2-methylalanine)- Assays were carried out in stoppered 12×220 mm test tubes containing a folded 10×25 mm piece of filter paper soaked with 24 μL of 2:1 ethanolamine/2-ethoxyethanol- After incubation at room temperature (25° C.) for one or two hours, the reaction was quenched with 200 μL of 50% trichloroacetic acid, ^14 CO2 was collected for one hour, and the filter paper was counted in 10 mL of Beckman Ready Safe cocktail. One unit is defined as the amount of activity required to produce 1 nanomole of CO2 per min. at 25° C.
Time Course of Dialkylglycine Decarboxylase Induction--An 800-mL portion of M9 containing 12 μg/mL tetracycline in a 6-L conical flask was inoculated with DH5α/pKBD6. The flask was shaken at 37° C. and the absorbance at 600 nm was measured periodically. At various times during cell growth aliquots containing 60. AU's (absorbance units) of cells were removed, stored on ice, concentrated by centrifugation, and resuspended in 1.0 mL MOPS buffer. Aliquots of 0.50 mL were assayed for dialkylglycine activity. After the first two samples were taken, an amino acid (2-methylalanine, R,S-isovaline, D-alanine, or L-alanine) was added to a final concentration of 8.0 mM and sampling was continued.

[2] = tested on: dialkylglycine decarboxylase gene (dgdA) expression controlled by the P. cepacia repressor, in E. coli JM109/pGEM7Z14; type: cell-based, Escherichia coli; details: 20 mM amino acid in culture medium
Protocol: Induction Stereochemistry--The induction phenomenon was further investigated by surveying the inducing ability of the separate isovaline stereoisomers and 15 other structurally similar amino acids (Table 3).
In some experiments 20 mM 2-methylalanine or other amino acid or 1 mg/mL IPTG was added to the growth medium. […] Protein concentrations were determined by dye binding (Read and Northcote, 1981).

[3] = target: T1, Pseudomonas cepacia 2,2-dialkylglycine decarboxylase repressor (dgdR gene product, SEQ ID NO: 11) bound to operators O1 and O2 (Burkholderia cepacia, UniProt P16931); experiment: Gel mobility shift assay of dgdR repressor with the 788 bp DNA fragment in presence of 2-methylalanine; type: binding; details: 20 mM 2-methylalanine in gel; 788 bp fragment containing O1 and O2
T1 construct: crude extract or ammonium sulfate fraction; gel shift on dgd operator DNA
Protocol: Repressor Preparation--A 100 ml portion of LB medium containing about 50 μg/ml carbenicillin was inoculated with about a 2 ml overnight culture of JM109/pJKDGDR1 and was grown at about 37° C. to an OD600 of 1. IPTG was added to a final concentration of about 1 mM, the culture was shaken another 4 h, and then was pelleted by centrifugation at 4000 xg at about 4° C. The pellet was resuspended in 5 ml buffer (50 mM TrisHCl pH 7.9, 50 mM KCl), sonicated 3×0.5 min at about 0° C., and centrifuged for about 15 min at about 12,000 xg at about 4° C. Aliquots of the supernatant were used for gel shift assays and SDS-PAGE. Other aliquots were partially purified by selective precipitation with 1.0 M ammonium sulfate. Protein concentration was determined by the dye binding method of Read and Northcote (1981). […]
Gel Shift Assays--A 10 μl assay mixture contained about 50 ng of DNA fragment, 1.0 μg of repressor extract (or 1.0 μg of extract from a JM109 strain containing a dgdA-pBTac1 recombinant), 10 mM TrisHCl pH 7.6, 5 mM sodium acetate, 2.5% glycerol, and 0.005% bovine serum albumin. The mixture was incubated 5 to 20 min at room temperature, about 3 μl of 50% sucrose/0.1% bromophenol blue was added, and the entire sample was analyzed by electrophoresis in a 1 mm 4% polyacrylamide gel containing about […] Tris, 380 mM glycine, 4 mM EDTA, and 2.5% glycerol. […]

[4] = target: Pseudomonas cepacia 2,2-dialkylglycine decarboxylase (Burkholderia cepacia, UniProt P16932); details: isovaline isomer as substrate of the decarboxylase; read-out: Michaelis constant; cited from earlier work
Chain of Pseudomonas cepacia 2,2-dialkylglycine decarboxylase (P16932 2-433): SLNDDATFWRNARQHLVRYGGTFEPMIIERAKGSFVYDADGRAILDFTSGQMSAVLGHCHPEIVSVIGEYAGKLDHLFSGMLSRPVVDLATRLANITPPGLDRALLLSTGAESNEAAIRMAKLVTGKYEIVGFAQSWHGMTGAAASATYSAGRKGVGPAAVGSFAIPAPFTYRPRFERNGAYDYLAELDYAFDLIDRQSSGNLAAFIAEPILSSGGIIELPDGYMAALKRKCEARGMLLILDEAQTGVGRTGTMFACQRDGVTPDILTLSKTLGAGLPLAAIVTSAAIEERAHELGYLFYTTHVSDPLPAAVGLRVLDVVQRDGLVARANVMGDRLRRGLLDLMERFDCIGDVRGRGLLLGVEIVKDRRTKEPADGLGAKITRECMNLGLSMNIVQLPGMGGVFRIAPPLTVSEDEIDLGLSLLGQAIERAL

T1 sequence (P16931 whole entry, the tested form may be a part): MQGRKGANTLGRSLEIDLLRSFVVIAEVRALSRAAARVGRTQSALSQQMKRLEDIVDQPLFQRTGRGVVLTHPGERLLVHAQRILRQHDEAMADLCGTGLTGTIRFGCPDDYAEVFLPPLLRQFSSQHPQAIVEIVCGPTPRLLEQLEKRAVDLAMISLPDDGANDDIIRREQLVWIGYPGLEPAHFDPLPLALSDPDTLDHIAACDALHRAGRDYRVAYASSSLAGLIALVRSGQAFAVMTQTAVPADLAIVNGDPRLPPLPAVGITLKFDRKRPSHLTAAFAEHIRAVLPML

Structure (SMILES)	induction of decarboxylase specific activity after amino acid addition (in words) [1]	other results
CCC(C)(N)C(=O)O (racemic) [racemic isovaline, isovaline (2-ethylalanine)]	immediate and rapid increase in decarboxylase specific activity	
NC1(C(=O)O)CCCC1 [1-Aminocyclopentane carboxylic acid]		induction of decarboxylase (in words) [2]: induced an intermediate level
CC(C)(N)C(=O)O [2-Methylalanine]	immediate and rapid increase in decarboxylase specific activity	effect on repressor binding to operators (gel shift, in words) [3]: releases O1, but not O2, binding
C[C@@H](N)C(=O)O [D-Alanine]	no decarboxylase production	
C[C@H](N)C(=O)O [L-Alanine]	no decarboxylase production	
CC[C@@](C)(N)C(=O)O [R-Isovaline]		Km [4]: 1 mM
CC[C@](C)(N)C(=O)O [S-Isovaline]		Km [4]: 25 mM
